Active and inactive are the calls of the source.
Key:
CAAX prenyl protease 2 = CAAX prenyl protease 2 (Homo sapiens, UniProt Q9Y256); experiment: inhibition of Ras-converting CAAX protease Rce1 – biochemical, yeast membranes, quenched-peptide fluorescence, cherry-pick, dose response (AID 588849)
Trypsin = Trypsin (Sus scrofa, UniProt P00761); experiment: trypsin protease activity blockade – biochemical, quenched peptide fluorescence, cherry-pick, selectivity assay for Rce1 protease inhibitor project, dose response (AID 488789)
CAAX prenyl protease 1 = CAAX prenyl protease 1 (Saccharomyces cerevisiae S288c, UniProt P47154); experiment: yeast CAAX protease Ste24 inhibition – biochemical, S. cerevisiae, plate reader, cherry-pick, dose response (AID 488815)
[1] = target: Serine/threonine-protein phosphatase PP1-alpha catalytic subunit (Homo sapiens, UniProt P62136); experiment: inhibition of protein phosphatase 1 activity – biochemical, fluorescence, dose response (AID 2394)
[2] = target: Lysine-specific demethylase 4C (Homo sapiens, UniProt Q9H3R0); experiment: inhibition of JMJD2C H3K9me3 demethylation – biochemical, DELFIA europium, cherry-picked samples, dose response (AID 488835); type: functional
[3] = bead-based luminescence quenchers, dual-tagged ARNT – biochemical, AlphaScreen, cherry-pick, artefact control for ARNT-TACC3 interaction inhibitor project, dose response (AID 651705); type: functional;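 note: AlphaScreen bead proximity signal that flags compounds interfering with the detection technology; potency reflects signal decrease which marks the compound as an assay artifact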
[4] = target: Serine/threonine-protein phosphatase (Homo sapiens, UniProt Q9BPW0); experiment: inhibition of protein phosphatase 5 activity – biochemical, fluorescence, dose response (AID 2395)
Beta-lactamase [5] = target: Beta-lactamase (Salmonella choleraesuis (strain SC-B67), UniProt Q5J463)
[6] = target: UDP-galactopyranose mutase (Mycobacterium tuberculosis, UniProt P9WIQ1); experiment: Inhibitors of Mycobacterium tuberculosis UDP-galactopyranose mutase (UGM) enzyme Measured in Biochemical System Using Plate Reader - 2105-02_Inhibitor_Dose_CherryPick_Activity. [Related pubchem assays (depositor defined):AID504439]
Keap1/Nrf2 = Keap1/Nrf2 (Homo sapiens, UniProt Q14145); experiment: disruptors of Keap1 binding to Nrf2 peptide – biochemical, fluorescence polarization, cherry-picked samples, dose response (AID 588683)
ORF 73 = ORF 73 (Human herpesvirus 8, UniProt O40947); experiment: KSHV LANA DNA-binding disruption – biochemical, fluorescence polarization, cherry-picked samples, dose response (AID 504725); parameters: species or system Human gammaherpesvirus 8;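 note: fluorescence polarization of a labeled DNA duplex reporting LANA DNA binding; potency is for inhibitors that block LANA binding to the DNA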
Beta-lactamase [7] = target: Beta-lactamase (Pseudomonas aeruginosa, UniProt Q79MP6);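 note: biochemical dose-response test of metallo-beta-lactamase enzyme inhibition, read out by epi-absorbance; purified recombinant IMP-1 metallo-beta-lactamase with nitrocefin as substrate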
[8] = target: Transitional endoplasmic reticulum ATPase (Homo sapiens, UniProt P55072, C522A); experiment: C522A mutant p97 ATPase inhibitors, dose response, counter-screen for p97 inhibitor project, biochemical, luminescence (AID 1544)
Caspase-6 = target: T1, Caspase-6 (Homo sapiens, UniProt P55212); experiment: inhibition of CASP6 peptide cleavage – biochemical, VEID-R110 fluorescence, cherry-pick, dose response (AID 720632)
T1 sequence (P55212 whole entry): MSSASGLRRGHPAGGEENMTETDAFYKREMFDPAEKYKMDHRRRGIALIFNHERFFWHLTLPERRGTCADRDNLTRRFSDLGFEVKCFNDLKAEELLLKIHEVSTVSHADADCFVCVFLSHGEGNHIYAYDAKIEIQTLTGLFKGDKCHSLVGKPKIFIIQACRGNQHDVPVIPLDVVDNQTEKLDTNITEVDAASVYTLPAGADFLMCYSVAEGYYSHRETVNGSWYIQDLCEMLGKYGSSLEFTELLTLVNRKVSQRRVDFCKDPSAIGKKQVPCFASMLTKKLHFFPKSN

[9] = target: T2, Voltage-gated N-type calcium channel alpha-1B subunit/Amyloid beta A4 precursor protein-binding family A member 1 (Homo sapiens, UniProt Q00975+Q02410); type: protein assay
[10] = target: DNA (cytosine-5)-methyltransferase 1 (Homo sapiens, UniProt P26358); experiment: inhibition of DNA methylation by DNMT1 – biochemical, fluorescent molecular beacon, confirmation (AID 602386); type: functional
[11] = target: Induced myeloid leukemia cell differentiation protein Mcl-1 (Homo sapiens, UniProt Q07820); type: functional
SUMO-activating enzyme [12] = target: T3, SUMO-activating enzyme (Homo sapiens, UniProt Q9UBT2); experiment: blockers of UBC9-mediated SUMO conjugation – biochemical, AlphaScreen, SUMOylation inhibitor project, confirmation (AID 2018); type: functional
[13] = target: T2, Voltage-gated N-type calcium channel alpha-1B subunit/Amyloid beta A4 precursor protein-binding family A member 1; type: protein assay; remark: listed apart in the source
SUMO-activating enzyme [14] = target: T3, SUMO-activating enzyme; experiment: blockers of SAE1/SAE2–UBC9 SUMO transfer – biochemical, HTRF, uHTS, primary screen (AID 2006); type: protein-complex assay
Aminopeptidase N = target: T4, Aminopeptidase N (Plasmodium falciparum FcB1/Columbia, UniProt O96935); experiment: malaria alanyl aminopeptidase activity blockers – biochemical, fluorogenic H-Leu-NHMec substrate, 1536-well (AID 1445); parameters: species or system Plasmodium falciparum 3D7, 3D7
T4 sequence (O96935 whole entry): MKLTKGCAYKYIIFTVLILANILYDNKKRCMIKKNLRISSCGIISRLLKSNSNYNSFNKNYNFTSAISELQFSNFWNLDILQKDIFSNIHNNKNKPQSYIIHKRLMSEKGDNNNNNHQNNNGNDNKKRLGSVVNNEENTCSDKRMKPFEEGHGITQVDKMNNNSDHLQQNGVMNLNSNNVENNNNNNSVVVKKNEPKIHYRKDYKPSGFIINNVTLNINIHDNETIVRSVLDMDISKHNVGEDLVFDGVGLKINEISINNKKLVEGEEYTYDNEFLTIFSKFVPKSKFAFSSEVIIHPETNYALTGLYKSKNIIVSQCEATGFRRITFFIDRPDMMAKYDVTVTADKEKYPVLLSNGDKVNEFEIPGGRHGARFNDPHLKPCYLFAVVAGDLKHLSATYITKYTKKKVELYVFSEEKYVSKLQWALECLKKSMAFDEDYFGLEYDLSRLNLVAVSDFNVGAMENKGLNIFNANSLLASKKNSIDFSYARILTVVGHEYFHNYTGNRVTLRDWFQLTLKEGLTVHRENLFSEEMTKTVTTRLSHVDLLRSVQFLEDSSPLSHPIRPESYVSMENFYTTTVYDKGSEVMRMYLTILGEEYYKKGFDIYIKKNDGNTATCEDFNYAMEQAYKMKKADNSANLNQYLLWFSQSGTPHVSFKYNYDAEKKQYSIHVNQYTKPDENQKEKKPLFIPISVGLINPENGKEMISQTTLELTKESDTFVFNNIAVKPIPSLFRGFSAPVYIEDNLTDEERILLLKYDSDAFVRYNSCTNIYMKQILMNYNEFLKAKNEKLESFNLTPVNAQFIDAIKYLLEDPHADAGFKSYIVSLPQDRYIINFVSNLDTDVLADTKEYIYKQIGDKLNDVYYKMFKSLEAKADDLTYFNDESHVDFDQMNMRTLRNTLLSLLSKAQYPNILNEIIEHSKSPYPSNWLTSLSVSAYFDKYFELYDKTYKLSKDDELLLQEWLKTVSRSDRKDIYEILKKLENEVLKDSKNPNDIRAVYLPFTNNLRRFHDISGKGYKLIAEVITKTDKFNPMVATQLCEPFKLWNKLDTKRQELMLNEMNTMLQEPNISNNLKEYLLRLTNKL

[15] = target: T5, Histone-lysine N-methyltransferase NSD2 (Homo sapiens, UniProt O96028); type: biochemical
T5 sequence (O96028 whole entry): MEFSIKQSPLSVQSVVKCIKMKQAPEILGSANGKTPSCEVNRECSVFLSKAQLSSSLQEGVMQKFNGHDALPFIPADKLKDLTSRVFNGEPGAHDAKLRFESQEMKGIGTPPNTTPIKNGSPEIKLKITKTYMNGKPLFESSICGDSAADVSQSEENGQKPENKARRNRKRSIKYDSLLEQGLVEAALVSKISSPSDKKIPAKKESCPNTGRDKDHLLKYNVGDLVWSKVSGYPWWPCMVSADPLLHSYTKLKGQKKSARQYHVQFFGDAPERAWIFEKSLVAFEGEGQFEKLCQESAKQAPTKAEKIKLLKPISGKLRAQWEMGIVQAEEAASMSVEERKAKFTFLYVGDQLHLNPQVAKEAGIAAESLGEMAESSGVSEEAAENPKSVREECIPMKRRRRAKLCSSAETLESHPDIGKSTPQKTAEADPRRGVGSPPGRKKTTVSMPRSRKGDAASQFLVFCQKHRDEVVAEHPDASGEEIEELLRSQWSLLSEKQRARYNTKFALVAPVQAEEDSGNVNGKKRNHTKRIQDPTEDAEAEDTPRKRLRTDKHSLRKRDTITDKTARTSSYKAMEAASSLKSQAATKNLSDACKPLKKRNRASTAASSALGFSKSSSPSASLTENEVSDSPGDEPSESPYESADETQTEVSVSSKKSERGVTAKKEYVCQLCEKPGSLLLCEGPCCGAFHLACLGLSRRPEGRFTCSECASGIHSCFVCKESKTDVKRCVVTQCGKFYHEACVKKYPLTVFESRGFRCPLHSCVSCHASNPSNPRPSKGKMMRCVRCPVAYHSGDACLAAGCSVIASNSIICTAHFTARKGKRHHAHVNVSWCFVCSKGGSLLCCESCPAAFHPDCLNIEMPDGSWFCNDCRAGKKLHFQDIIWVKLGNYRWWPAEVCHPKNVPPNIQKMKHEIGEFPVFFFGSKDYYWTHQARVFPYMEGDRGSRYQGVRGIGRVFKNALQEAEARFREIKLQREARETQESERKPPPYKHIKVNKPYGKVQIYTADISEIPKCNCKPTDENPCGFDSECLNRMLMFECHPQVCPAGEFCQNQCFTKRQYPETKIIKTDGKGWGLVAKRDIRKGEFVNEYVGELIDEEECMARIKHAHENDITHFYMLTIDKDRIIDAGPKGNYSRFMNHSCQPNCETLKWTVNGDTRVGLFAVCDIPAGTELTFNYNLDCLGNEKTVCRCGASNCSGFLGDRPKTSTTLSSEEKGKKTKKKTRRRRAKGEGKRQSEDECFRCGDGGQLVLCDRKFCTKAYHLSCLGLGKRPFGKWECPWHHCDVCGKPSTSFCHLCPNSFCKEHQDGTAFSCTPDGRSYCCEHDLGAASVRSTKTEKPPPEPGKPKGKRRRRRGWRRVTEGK

SUMO E1/E2 = SUMO E1/E2 (Homo sapiens, UniProt P63279+Q9UBE0+Q9UBT2); experiment: SAR analysis of SUMOylation using HTRF in an in-Vitro dose response assay. [Related pubchem assays (depositor defined):AID2006, AID2011, AID2018, AID2069, AID2658]; type: functional
[16] = target: Transitional endoplasmic reticulum ATPase (Homo sapiens, UniProt P55072); experiment: p97 ATPase inhibitors, dose response, biochemical (AID 1534)
Genome polyprotein = Genome polyprotein (dengue virus type 2, UniProt P29990); experiment: flavivirus cap methylation enzyme inhibition – biochemical, confirmation dose response, primary screen (AID 588689); type: functional
[17] = SFLLRN-induced P-Selectin Platelet Surface Expression Measured in Cell-Based System Using Flow Cytometry - 2016-03_Inhibitor_Dose_DryPowder_Activity_Set3. [Related pubchem assays (depositor defined):AID1678]; type: functional
[18] = Luminescence Cell-Based Dose Response Follow up to Identify Inhibitors of Platelet Dense Granule Release. [Related pubchem assays (depositor defined):AID1663, AID1678, AID1889, AID2519]; type: functional
[19] = target: T6, Mannose-6-phosphate isomerase (Homo sapiens, UniProt P34949); experiment: phosphomannose isomerase inhibition – biochemical, fluorescence intensity, confirmation (AID 1535)
T6 sequence (P34949 whole entry): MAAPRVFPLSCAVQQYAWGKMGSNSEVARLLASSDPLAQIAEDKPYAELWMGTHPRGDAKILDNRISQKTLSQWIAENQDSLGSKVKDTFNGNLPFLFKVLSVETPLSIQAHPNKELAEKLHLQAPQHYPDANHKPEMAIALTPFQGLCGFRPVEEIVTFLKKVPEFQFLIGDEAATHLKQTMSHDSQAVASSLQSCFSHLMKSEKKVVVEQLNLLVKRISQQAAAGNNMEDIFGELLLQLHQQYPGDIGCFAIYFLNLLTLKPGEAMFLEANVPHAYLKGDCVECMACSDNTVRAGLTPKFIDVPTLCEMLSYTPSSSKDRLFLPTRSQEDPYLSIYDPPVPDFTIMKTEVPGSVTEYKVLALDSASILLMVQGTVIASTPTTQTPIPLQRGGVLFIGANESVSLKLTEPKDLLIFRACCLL

[20] = restored growth of temperature-sensitive Burl-1 yeast – whole organism, S. cerevisiae, Burl-1 ts mutant, luminescence, counter-screen for SUMOylation pathway inhibitor project, dose response (AID 463199); type: functional
[21] = T. cruzi infection blockers in NIH3T3 cells – beta-gal luminescence, NIH3T3 host cells, confirmation (AID 2630); type: functional, cell-based; details: Mus musculus

T2 sequence (Q00975 whole entry): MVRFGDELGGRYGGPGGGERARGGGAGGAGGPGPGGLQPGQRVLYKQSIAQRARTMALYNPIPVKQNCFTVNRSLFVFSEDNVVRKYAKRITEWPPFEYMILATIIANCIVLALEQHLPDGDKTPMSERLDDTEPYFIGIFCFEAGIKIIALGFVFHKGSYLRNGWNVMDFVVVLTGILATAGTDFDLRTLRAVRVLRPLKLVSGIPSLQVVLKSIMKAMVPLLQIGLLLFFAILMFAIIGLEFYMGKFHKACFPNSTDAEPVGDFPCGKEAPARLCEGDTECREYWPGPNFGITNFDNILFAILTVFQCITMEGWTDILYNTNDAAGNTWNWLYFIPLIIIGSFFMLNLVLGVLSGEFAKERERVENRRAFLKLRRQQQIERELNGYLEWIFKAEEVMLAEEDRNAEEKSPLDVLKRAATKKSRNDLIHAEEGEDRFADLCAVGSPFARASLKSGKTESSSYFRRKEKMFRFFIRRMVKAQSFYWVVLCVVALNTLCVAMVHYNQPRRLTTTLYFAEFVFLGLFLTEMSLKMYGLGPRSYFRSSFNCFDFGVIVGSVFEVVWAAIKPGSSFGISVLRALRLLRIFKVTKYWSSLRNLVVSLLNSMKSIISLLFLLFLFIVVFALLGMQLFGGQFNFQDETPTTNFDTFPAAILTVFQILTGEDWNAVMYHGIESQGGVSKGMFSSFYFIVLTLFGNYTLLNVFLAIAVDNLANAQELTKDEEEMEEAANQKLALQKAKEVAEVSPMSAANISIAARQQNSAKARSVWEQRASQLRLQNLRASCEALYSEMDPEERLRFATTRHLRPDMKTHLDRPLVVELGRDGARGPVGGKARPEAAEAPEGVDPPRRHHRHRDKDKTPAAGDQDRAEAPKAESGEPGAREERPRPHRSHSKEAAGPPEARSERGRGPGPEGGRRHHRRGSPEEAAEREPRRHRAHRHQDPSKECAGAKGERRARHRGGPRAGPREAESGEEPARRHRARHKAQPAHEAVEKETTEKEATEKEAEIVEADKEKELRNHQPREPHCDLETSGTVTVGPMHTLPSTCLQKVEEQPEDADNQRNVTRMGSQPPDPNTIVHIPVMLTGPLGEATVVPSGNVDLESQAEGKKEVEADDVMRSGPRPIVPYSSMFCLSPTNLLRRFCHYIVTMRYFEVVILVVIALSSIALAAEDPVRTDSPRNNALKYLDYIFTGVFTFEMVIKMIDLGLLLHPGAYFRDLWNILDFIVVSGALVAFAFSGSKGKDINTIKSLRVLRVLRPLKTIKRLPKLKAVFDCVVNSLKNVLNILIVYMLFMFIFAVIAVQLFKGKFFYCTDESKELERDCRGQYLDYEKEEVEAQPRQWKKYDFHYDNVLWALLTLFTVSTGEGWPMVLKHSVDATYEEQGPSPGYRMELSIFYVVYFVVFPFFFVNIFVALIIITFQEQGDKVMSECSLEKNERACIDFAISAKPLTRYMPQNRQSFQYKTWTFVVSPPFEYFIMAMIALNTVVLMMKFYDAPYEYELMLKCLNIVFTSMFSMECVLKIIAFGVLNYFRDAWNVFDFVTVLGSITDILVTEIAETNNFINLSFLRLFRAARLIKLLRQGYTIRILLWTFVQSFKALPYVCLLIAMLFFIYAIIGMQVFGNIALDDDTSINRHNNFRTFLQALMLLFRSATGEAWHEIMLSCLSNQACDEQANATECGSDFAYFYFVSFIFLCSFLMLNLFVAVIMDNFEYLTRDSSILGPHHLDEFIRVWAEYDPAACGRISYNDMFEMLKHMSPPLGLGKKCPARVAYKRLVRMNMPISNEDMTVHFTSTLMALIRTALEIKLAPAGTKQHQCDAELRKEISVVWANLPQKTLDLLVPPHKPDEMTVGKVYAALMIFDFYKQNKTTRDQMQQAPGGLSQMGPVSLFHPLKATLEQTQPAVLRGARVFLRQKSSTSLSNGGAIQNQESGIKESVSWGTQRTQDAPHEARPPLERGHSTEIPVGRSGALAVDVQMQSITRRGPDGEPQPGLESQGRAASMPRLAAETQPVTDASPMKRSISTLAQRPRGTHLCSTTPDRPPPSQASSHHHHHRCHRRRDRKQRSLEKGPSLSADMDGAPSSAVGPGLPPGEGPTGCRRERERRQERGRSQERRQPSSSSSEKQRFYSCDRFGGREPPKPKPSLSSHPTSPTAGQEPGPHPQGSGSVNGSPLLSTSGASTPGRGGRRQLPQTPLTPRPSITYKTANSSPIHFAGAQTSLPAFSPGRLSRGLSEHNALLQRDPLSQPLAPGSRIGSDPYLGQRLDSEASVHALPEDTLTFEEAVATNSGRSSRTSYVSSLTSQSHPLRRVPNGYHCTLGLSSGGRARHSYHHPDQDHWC
T2 sequence (Q02410 whole entry): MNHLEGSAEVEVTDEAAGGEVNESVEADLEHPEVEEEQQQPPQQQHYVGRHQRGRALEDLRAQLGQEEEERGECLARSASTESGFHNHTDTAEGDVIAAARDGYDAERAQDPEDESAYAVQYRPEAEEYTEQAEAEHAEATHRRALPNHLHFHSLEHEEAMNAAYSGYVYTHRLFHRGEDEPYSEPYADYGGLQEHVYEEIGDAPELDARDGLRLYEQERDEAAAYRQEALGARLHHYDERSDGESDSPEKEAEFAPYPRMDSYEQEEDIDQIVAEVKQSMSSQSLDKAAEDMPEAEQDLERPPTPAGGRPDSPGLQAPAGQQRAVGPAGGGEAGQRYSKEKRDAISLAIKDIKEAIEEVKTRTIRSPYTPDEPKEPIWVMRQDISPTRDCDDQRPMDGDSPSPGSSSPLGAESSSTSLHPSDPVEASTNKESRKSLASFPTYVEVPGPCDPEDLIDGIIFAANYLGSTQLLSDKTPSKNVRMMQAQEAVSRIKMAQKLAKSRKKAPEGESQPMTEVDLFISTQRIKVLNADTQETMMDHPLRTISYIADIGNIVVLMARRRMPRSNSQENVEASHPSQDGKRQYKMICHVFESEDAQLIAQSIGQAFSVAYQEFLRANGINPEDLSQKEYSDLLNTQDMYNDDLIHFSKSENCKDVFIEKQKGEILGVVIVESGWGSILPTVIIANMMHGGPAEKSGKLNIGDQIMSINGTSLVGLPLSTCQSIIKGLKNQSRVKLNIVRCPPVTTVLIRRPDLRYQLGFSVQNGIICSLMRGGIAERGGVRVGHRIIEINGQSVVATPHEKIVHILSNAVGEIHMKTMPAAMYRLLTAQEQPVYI
T3 sequence (Q9UBE0 whole entry): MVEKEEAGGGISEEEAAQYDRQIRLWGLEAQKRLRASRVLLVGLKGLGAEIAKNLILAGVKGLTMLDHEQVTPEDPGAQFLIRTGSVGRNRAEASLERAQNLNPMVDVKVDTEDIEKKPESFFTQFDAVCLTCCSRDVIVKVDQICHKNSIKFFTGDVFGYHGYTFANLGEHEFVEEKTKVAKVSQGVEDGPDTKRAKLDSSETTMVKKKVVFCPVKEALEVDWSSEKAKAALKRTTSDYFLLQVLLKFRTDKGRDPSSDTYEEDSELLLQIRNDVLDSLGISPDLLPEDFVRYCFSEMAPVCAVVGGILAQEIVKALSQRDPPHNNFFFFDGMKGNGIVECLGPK
T3 sequence (Q9UBT2 whole entry): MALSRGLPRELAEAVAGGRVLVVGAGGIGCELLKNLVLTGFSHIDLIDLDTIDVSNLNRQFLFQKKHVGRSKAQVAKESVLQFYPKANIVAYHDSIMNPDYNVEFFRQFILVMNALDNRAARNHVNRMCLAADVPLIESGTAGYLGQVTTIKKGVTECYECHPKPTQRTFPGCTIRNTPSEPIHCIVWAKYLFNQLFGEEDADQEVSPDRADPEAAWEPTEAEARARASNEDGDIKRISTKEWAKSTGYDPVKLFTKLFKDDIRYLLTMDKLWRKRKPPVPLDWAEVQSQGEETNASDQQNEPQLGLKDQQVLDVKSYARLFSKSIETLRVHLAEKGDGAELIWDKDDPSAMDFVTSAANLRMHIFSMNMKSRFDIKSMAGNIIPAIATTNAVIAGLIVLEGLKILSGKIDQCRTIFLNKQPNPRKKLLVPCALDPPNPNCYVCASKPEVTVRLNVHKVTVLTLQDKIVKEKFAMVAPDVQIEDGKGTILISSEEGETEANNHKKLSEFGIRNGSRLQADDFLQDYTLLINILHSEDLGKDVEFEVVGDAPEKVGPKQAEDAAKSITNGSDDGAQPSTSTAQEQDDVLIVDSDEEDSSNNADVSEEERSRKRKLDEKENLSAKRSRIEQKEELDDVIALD
Transitional endoplasmic reticulum ATPase (Homo sapiens, UniProt P55072), sequence (P55072 whole entry): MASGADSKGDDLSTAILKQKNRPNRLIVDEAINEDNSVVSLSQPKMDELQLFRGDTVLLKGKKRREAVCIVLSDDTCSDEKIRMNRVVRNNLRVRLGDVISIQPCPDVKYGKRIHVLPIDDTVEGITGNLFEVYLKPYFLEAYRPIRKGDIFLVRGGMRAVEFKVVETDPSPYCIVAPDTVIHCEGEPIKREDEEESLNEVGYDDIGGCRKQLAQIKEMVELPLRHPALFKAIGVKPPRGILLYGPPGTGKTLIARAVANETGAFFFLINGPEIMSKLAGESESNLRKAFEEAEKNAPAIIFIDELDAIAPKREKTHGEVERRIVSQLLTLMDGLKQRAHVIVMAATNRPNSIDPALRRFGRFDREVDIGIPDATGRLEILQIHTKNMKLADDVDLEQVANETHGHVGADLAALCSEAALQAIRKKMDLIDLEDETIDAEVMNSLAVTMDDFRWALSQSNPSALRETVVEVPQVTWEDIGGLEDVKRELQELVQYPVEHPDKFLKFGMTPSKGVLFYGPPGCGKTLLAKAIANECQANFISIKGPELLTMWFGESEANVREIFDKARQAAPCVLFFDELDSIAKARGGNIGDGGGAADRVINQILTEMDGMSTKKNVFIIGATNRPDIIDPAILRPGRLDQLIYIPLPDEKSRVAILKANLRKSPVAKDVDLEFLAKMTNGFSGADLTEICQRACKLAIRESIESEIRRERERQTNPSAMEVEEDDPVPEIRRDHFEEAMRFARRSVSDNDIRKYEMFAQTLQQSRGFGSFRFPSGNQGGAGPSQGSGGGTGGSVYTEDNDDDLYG

COc1ccc(-n2c(N)c(C(=O)NCc3ccco3)c3nc4ccccc4nc32)c(OC)c1
AC50 (CAAX prenyl protease 2): 2.3 µM (active)
AC50 (Trypsin): 2.87 µM (active)
AC50 (CAAX prenyl protease 1): 5.18 µM (active)

O=[N+]([O-])c1ccc(O)c(-c2nn[nH]n2)c1
IC50 [1]: > 67 µM (not active)
AC50 [2]: 4.74 µM (active)
AC50 [3]: 121 µM (active)
IC50 [4]: 44.5 µM (not active)

Nc1cccc(N2C(=O)c3cccc4c(N)ccc(c34)C2=O)c1
IC50 (Beta-lactamase [5]): 16.8 µM (inactive)
AC50 [6]: 3.13 µM (active)
AC50 (Keap1/Nrf2): 4.29 µM (active)
AC50 (ORF 73): 6.98 µM (active)
IC50 (Beta-lactamase [7]): 31 µM (inactive)

O=C(O)c1ccc(NS(=O)(=O)c2ccc3c(c2)C2C=CCC2C(c2ccccc2F)N3)cc1 (stereo unspecified)
IC50 [8]: > 50 µM (not active)
AC50 (Caspase-6): 13.7 µM (active)
IC50 [9]: > 56.8 µM (not active)
IC50 [10]: 10.1 µM (active)
IC50 [11]: 2.58 µM (active)
IC50 (SUMO-activating enzyme [12]): 4.63 µM (active)
AC50 (ORF 73): 109 µM (active)
IC50 [13]: > 50 µM (inactive)
IC50 (SUMO-activating enzyme [14]): 19.5 µM (active)
IC50 (Aminopeptidase N): 2.75 µM (active)
AC50 [15]: 10.2 µM (active)
IC50 (SUMO E1/E2): 35.3 µM (active)
IC50 [16]: 19 µM (not active)
IC50 (Genome polyprotein): 62.3 µM (active)

CC(=O)Nc1cccc(NC(=O)c2ccccc2Cl)c1
AC50 [17]: 53.9 µM (active)
EC50 [18]: 147 µM (active)

O=c1c2ccccc2[nH]n1-c1ccccc1
IC50 [19]: 44.9 µM (active)

CSc1ccc(Cl)c(C(=O)Nc2ccc(N3CCOCC3)cc2)c1
AC50 [20]: 57.3 µM (active)

Cn1cc(CN2CCCC(C(=O)c3ccc(C(C)(C)C)cc3)C2)cn1 (stereo unspecified)
EC50 [21]: 1.25 µM (active)

Source: ChEMBL document CHEMBL1201862, “PubChem BioAssay data set” (2004)
